Test results: US9730445B2, “Herbicidal compositions comprising 4-amino-3-chloro-5-fluoro-6-(4-chloro-2-fluoro-3-methoxyphenyl) pyridine-2-carboxylic acid or a derivative thereof and fungicides” (DOW AGROSCIENCES LLC, priority 2013, dated 2017)

Assays:
Experiment in all cases: In-water applied weed control, transplanted paddy rice (greenhouse)
FIMMI = type: in vivo, Fimbristylis miliacea (L.) Vahl (globe fringerush); settings: Tricyclazole 200 g ai/ha
Protocol: (§1) Weed seeds or nutlets of the desired test plant species were planted in puddled soil (mud) prepared by mixing a shredded, non-sterilized mineral soil (50.5 percent silt, 25.5 percent clay, and 24 percent sand, with a pH of about 7.6 and an organic matter content of about 2.9 percent) and water at a 1:1 volumetric ratio. The prepared mud was dispensed in 365 mL aliquots into 16-ounce (oz.) non-perforated plastic pots with a surface area of 86.59 square centimeters (cm^2) leaving a headspace of 3 centimeters (cm) in each pot. Rice seeds were planted in Sun Gro MetroMix® 306 planting mixture, which typically has a pH of 6.0 to 6.8 and an organic matter content of about 30 percent, in plastic plug trays. Seedlings at the second or third leaf stage of growth were transplanted into 860 mL of mud contained in 32-oz. non-perforated plastic pots with a surface area of 86.59 cm^2 4 days prior to herbicide application. The paddy was created by filling the headspace of the pots with 2.5 to 3 cm of water. When required to ensure good germination and healthy plants, a fungicide treatment and/or other chemical or physical treatment was applied. The plants were grown for 4-22 days in a greenhouse with an approximate 14 hour (h) photoperiod which was maintained at about 29° C. during the day and about 26° C. during the night. Nutrients were added as Osmocote® (17:6:10, N:P:K+minor nutrients) at 2 g per cup. Water was added on a regular basis to maintain the paddy flood, and supplemental lighting was provided with overhead metal halide 1000-Watt lamps as necessary. The plants were employed for testing when they reached the first through fourth true leaf stage. […]
(§2) Treatment requirements for each compound or fungicidal component were calculated based upon the rates being tested, the concentration of active ingredient or acid equivalent in the formulation, an application volume of 2 mL per component per pot, and an application area of 86.59 cm^2 per pot.
(§3) For formulated compounds, a measured amount was placed in an individual 100 or 200 mL glass vial and was dissolved in a volume of 1.25% (v/v) Agri-Dex® crop oil concentrate to obtain application solutions. […]
(§4) The treated plants and control plants were placed in a greenhouse as described above and water was added as needed to maintain a paddy flood. After approximately 3 weeks the condition of the test plants as compared with that of the untreated plants was determined visually and scored on a scale of 0 to 100 percent where 0 corresponds to no injury or growth inhibition and 100 corresponds to complete kill. […]

CYPRO = type: in vivo, Cyperus rotundus L. (purple nutsedge)
Protocol: Weed seeds or nutlets of the desired test plant species were planted in puddled soil (mud) prepared by mixing a shredded, non-sterilized mineral soil (50.5 percent silt, 25.5 percent clay, and 24 percent sand, with a pH of about 7.6 and an organic matter content of about 2.9 percent) and water at a 1:1 volumetric ratio. The prepared mud was dispensed in 365 mL aliquots into 16-ounce (oz.) non-perforated plastic pots with a surface area of 86.59 square centimeters (cm^2) leaving a headspace of 3 centimeters (cm) in each pot. Rice seeds were planted in Sun Gro MetroMix® 306 planting mixture, which typically has a pH of 6.0 to 6.8 and an organic matter content of about 30 percent, in plastic plug trays. Seedlings at the second or third leaf stage of growth were transplanted into 860 mL of mud contained in 32-oz. non-perforated plastic pots with a surface area of 86.59 cm^2 4 days prior to herbicide application. The paddy was created by filling the headspace of the pots with 2.5 to 3 cm of water. When required to ensure good germination and healthy plants, a fungicide treatment and/or other chemical or physical treatment was applied. The plants were grown for 4-22 days in a greenhouse with an approximate 14 hour (h) photoperiod which was maintained at about 29° C. during the day and about 26° C. during the night. Nutrients were added as Osmocote® (17:6:10, N:P:K+minor nutrients) at 2 g per cup. Water was added on a regular basis to maintain the paddy flood, and supplemental lighting was provided with overhead metal halide 1000-Watt lamps as necessary. The plants were employed for testing when they reached the first through fourth true leaf stage.
Treatments consisted of the acid or esters of 4-amino-3-chloro-5-fluoro-6-(4-chloro-2-fluoro-3-methoxy-phenyl)pyridine-2-carboxylic acid (compound A) each formulated as an SC (suspension concentrate) and various fungicidal components alone and in combination. Forms of compound A were applied on an acid equivalent basis.
as §2
For formulated compounds, a measured amount was placed in an individual 100 or 200 mL glass vial and was dissolved in a volume of 1.25% (v/v) Agri-Dex® crop oil concentrate to obtain application solutions.
For technical grade compounds, a weighed amount was placed in an individual 100 to 200 mL glass vial and dissolved in a volume of acetone to obtain concentrated stock solutions.
Applications were made by injecting with a pipetter appropriate amounts of the application solutions, individually and sequentially, into the aqueous layer of the paddy. Control plants were treated in the same manner with the solvent blank. Applications were made so that all treated plant material received the same concentrations of acetone and crop oil concentrate.
The treated plants and control plants were placed in a greenhouse as described above and water was added as needed to maintain a paddy flood. After approximately 3 weeks the condition of the test plants as compared with that of the untreated plants was determined visually and scored on a scale of 0 to 100 percent where 0 corresponds to no injury or growth inhibition and 100 corresponds to complete kill.
Colby's equation was used to determine the herbicidal effects expected from the mixtures (Colby, S. R. Calculation of the synergistic and antagonistic response of herbicide combinations. Weeds 1967, 15, 20-22.).
The following equation was used to calculate the expected activity of mixtures containing two active ingredients, A and B: Expected=A+B−(A×B/100)

LEFCH = type: in vivo, Leptochloa chinensis (L.) Nees (Chinese sprangletop)
Protocol: as §1, §2, §3, §4

Cc1cccc2sc3nncn3c12 [Tricyclazole, 5-methyl-1,2,4-triazolo[3,4-b][1,3]benzothiazole, reference compound]
0%: Visual Weed Control (%) - 22 DAA FIMMI Obs (FIMMI) | Visual Weed Control (%) - 22 DAA CYPRO Obs (CYPRO; Tricyclazole 200 g ai/ha, 22 DAA) | Visual Weed Control (%) - 19 DAA CYPRO Obs (CYPRO; Tricyclazole 375 g ai/ha) | Visual Weed Control (%) - 19 DAA CYPRO Obs (CYPRO; Tricyclazole 750 g ai/ha) | Visual Weed Control (%) - 19 DAA LEFCH Obs (LEFCH; Tricyclazole 187.5 g ai/ha) | Visual Weed Control (%) - 19 DAA LEFCH Obs (LEFCH; Tricyclazole 750 g ai/ha)
